In US9782424B2, “Synergistic combination comprising avermectins and a NSAID for tumor inhibition” (Ectin Research AB, priority 2011, dated 2017):
Several values for one entry are separate records, joined by “and”; a condition that tells them apart may be missing. Identical values can stand only once. Entries after “also recorded” stand apart in the source; their conditions may differ.

Tests used:
[1] = tested on: urinary bladder cell line (UM-UC-3); test: XTT-assay proliferation rate, urinary bladder cell line; type: cell-based, human; conditions: for Proliferation rate compared to untreated medium control: UM-UC-3 (Table 3); for Proliferation rate in per cent compared to untreated medium control: UM-UC-3
Procedure: (§1) Commercially available human tumor cell lines were purchased from ATCC (ATCC/LGC-standards, Borás, Sweden). […] Briefly, ampoules of frozen cells were thawed by submerging into a 37° C. water bath for 45 s. […] With supernatant discarded, cell pellets were further resuspended with 5 ml complete medium into 25 cm^2 cell culture flasks (Cell+, Sarstedt, Nümbrecht, Germany). Tumor cells were cultured until sub-confluence and further sub-cultured with Trypsin (0.5%), EDTA (0.2%) solution (T4174, TE-10x, Sigma) in sterile sodium chloride. Culture media was changed two-three times a week. Culture flasks (Cell+, Sarstedt, Nümbrecht, Germany) and culture plates (Falcon/BD, Franklin Lakes, N.J., USA) were used for experimental set-ups. Cells were regularly monitored using an inverted microscope connected to a digital photo equipment (Axiovert 25 and Axiovision, Zeiss, Carl Zeiss AG, Germany) (FIG. 1). Described culture techniques and equipment have been used extensively in the laboratory
The proliferation rates of the different human tumor cell lines were studied using a method based on the conversion of a sodium salt (XTT-assay, Sigma) into a stable orange color that could be analyzed in a spectrophotometer. […] The color change was measured using a 96-well plate reader with software to calculate the absorbance at 450 nm (V-max/Softmax Pro, Molecular Devices, USA).
Increasing concentrations of substance ivermectin was added with an 8-channel pipette (Titertek, Kem-En-Tec, Taastrup, Denmark) together with sterile pipette tips (Molecular Bioproducts, San Diego, Calif., USA). Cell cultures including active substances were incubated for 24 hours (and 96 hours). Untreated wells including culture medium only served as untreated controls. The XTT-assay substrate was added and after gentle agitation using a micro plate shaker, absorbencies at 450 and 650 nm were measured. Levels from medium were subtracted and compared with control wells, using culture medium only.

[2] = tested on: colorectal cells (Colo205); test: Morphology of cultured tumor cells, Colo205; type: cell-based, human
Procedure: as §1
(§2) The effect of Ivermectin, selamectin, abamectin alone, or in combination with ketoconazole, albendazole, ibuprofen, diclofenac and celecoxib on the morphology of cultured human tumor cells was studied. The effect of ivermectin in the presence of increasing concentration of ivermectin was also investigated. Cells were grown into sub-confluence and then sub-cultured into 12 and 24 well plates (Sarstedt, Falcon/BD) for morphology studies, or in 96 well plates (Sarstedt, Falcon/BD) for proliferation studies.

[3] = tested on: advanced urothelial cancer with extensive metastasis; test: Case observation of a patient given ivermectin; type: in vivo, human; conditions: middle age person, standard treatment dosage for Strongyloidiasis, no other medication
From the text: The present studies are based on an observation describing a middle age person suffering from an advanced urothelial cancer with extensive metastasis. Due to a tropical infection (Strongyloidiasis) this patient received the substance ivermectin as a standard treatment dosage.
The present studies are based on a case report describing a middle age person suffering from an advanced urothelial cancer with extensive metastasis. Due to a tropical infection this patient received the substance ivermectin. […] The reason for this is not known however a direct effect of the substance ivermectin could not be precluded.

[4] = tested on: colorectal cell line (Colo205); test: XTT-assay proliferation rate, colorectal cell line Colo205; type: cell-based, human; conditions: for Proliferation rate compared to medium control: Colo205 (Table 4); for Proliferation rate in per cent compared to untreated medium control: Colo205
From the text: Commercially available human tumor cell lines were purchased from […], Borás, Sweden). Cell lines from urinary bladder (UM-UC-3, #CRL-1749), colorectal carcinoma (Colo205, #CCL-222 and HT29, #HTB-38), prostate carcinoma (LNCaP, #CRL-1740) and breast carcinoma (ZR-75-1, #CRL-1500) were purchased and stored in liquid nitrogen. […] Tumor cell lines were handled aseptically using a laminar airflow (LAF) bench (Holten 2448, Ninolab, Sweden) and stored in a liquid nitrogen tank and were initiated in culture as previously described (Falk P. Experimental models of the peritoneal environment: Effects of TGF-beta and Hyaluronan. Göteborg: University of Gothenburg; 2008). Briefly, ampoules of frozen cells were thawed by submerging into a 37° C. water bath for 45 s. […] Culture media was changed two-three times a week. Culture flasks (Cell+, Sarstedt, Nümbrecht, Germany) and culture plates (Falcon/BD, Franklin Lakes, N.J., USA) were used for experimental set-ups. […] Described culture techniques and equipment have been used extensively in the laboratory The proliferation rates of the different human tumor cell lines were studied using a method based on the conversion of a sodium salt (XTT-assay, Sigma) into a stable orange color that could be analyzed in a spectrophotometer. The color change is proportional to the mitochondrial dehydrogenase activity resulting in an effective technique for measuring cell toxicity (Roehm N W, Rodgers […], Glasebrook A L. An improved colorimetric assay for cell proliferation and viability utilizing the tetrazolium salt XTT. […] The color change was measured using a 96-well plate reader with software to calculate the absorbance at 450 nm (V-max/Softmax Pro, Molecular Devices, USA). […] RPMI 1640 and EMEM without phenol red was used during the experiments to reduce the red color background signal in the XTT-assay. […] Untreated wells including culture medium only served as untreated controls. The XTT-assay substrate was added and after gentle agitation using a micro plate shaker, absorbencies at 450 and 650 nm were measured. Levels from medium were subtracted and compared with control wells, using culture medium only.

[5] = tested on: prostate cells (LNCaP); test: Morphology of cultured tumor cells, LNCaP; type: cell-based, human; conditions: for Effect on morphology: 24 hours (FIG. 8)
Procedure: as §1, §2

[6] = ivermectin 10e-4 to 10e-10 mol/L (FIG. 2)

Substance: 22,23-dihydroavermectin B1a+22,23-dihydroavermectin B1b [ivermectin]
- Proliferation rate compared to untreated medium control ([1]; IVM 1 μmol/L alone): 99 ± 1%
- Proliferation rate compared to untreated medium control ([1]; IVM 10 μmol/L alone): 105 ± 3%
- Proliferation rate compared to untreated medium control ([1]; IVM 100 μmol/L alone): 90±1%
- Proliferation rate compared to untreated medium control ([1]; IVM 100 μmol/L alone, listed as IVM): 90 ± 1%
- Proliferation rate in per cent compared to untreated medium control ([1]; ivermectin 10e-9 mol/L): 100 ± 3%
- Proliferation rate in per cent compared to untreated medium control ([1]; ivermectin 10e-8 mol/L): 96 ± 5%
- Proliferation rate in per cent compared to untreated medium control ([1]; ivermectin 10e-7 mol/L): 95 ± 9%
- Proliferation rate in per cent compared to untreated medium control ([1]; ivermectin 10e-6 mol/L): 91 ± 3%
- Proliferation rate in per cent compared to untreated medium control ([1]; ivermectin 10e-5 mol/L): 34±8% and 34 ± 6%
- Proliferation rate in per cent compared to untreated medium control ([1]; ivermectin 10e-4 mol/L): 34±3%
- Effect on morphology ([2]; ivermectin): affected cell structure
- Effect on morphology ([2]; ivermectin 10 μM): no effect
- Decreased growth of cells, substances tested alone ([2]; ivermectin 10 μM alone, albendazole 20 and 40 μM alone (FIG. 11)): not seen
- Morphological effects over the concentration series [2, 6]: affected even at 10e-6 mol/L
- Clinical outcome of the urothelial cancer [3]: all the clinical signs of the urothelial cancer disappeared; also recorded: treated both the tropical infection and the urothelial cancer
- Proliferation rate compared to medium control ([4]; IVM 1 μmol/L alone): 101.3 ± 4.9%
- Proliferation rate compared to medium control ([4]; IVM 10 μmol/L alone): 97.7 ± 8.5%
- Proliferation rate compared to medium control ([4]; IVM 100 μmol/L alone): 69.4 ± 11.5%
- Proliferation rate in per cent compared to untreated medium control ([4]; ivermectin 10e-9 mol/L): 97 ± 14%
- Proliferation rate in per cent compared to untreated medium control ([4]; ivermectin 10e-8 mol/L): 104 ± 8%
- Proliferation rate in per cent compared to untreated medium control ([4]; ivermectin 10e-7 mol/L): 69±9%
- Proliferation rate in per cent compared to untreated medium control ([4]; ivermectin 10e-6 mol/L): 42±12%
- Proliferation rate in per cent compared to untreated medium control ([4]; ivermectin 10e-5 mol/L): 6±1%
- Proliferation rate in per cent compared to untreated medium control ([4]; ivermectin 10e-4 mol/L): 4±1%
- Effect on morphology ([5]; ivermectin 100 μM): affected
- Morphological effects over the concentration series [5, 6]: affected by the highest concentration 10e-4 mol/L only
- Effect on morphology ([5]; ivermectin 1 and 10 μM): No effect
